From ChEMBL document CHEMBL5375957, “Optimization of Novel α7 Nicotinic Acetylcholine Receptor Positive Allosteric Modulators and the Discovery of a Preclinical Development Candidate Molecule (RGH-560)” (J Med Chem, 2023)
In brackets after ≈: the same amount, converted by molar mass. Activity calls are given as the source filed them. The calls are words filed in the database; no cut-off is given here.

How the values were obtained:
[1] = test system: Mus musculus; experiment: Cognitive activity in scopolamine induced amnesia NMRI mouse model assessed as recognition index at 1 to 10 mg/kg, ip pretreated with compound for 30 mins followed by scopolamine induction by Y maze test; assay type: functional, organism-based; settings: dose 1-10 mg/kg
[2] = Drug concentration in NMRI mouse plasma at 1 mg/kg, ip measured after 1 hr by HPLC-MS/MS analysis; assay type: ADME, organism-based
[3] = Metabolic stability in NMRI mouse liver microsome assessed as intrinsic clearance measured per mg of protein incubated for 40 mins; assay type: ADME; settings: liver microsomes, read-out: CLH
[4] = Metabolic stability in human liver microsome assessed as intrinsic clearance measured per mg of protein incubated for 40 mins; assay type: ADME; settings: liver microsomes, read-out: CLH
[5] = Metabolic stability in Wistar rat liver microsome assessed as intrinsic clearance measured per mg of protein incubated for 40 mins; assay type: ADME; settings: liver microsomes, read-out: CLH
[6] = Drug concentration in NMRI mouse plasma at 10 mg/kg, ip measured after 1 hr by HPLC-MS/MS analysis; assay type: ADME, organism-based
[7] = Drug concentration in NMRI mouse brain at 3 mg/kg, ip measured after 1 hr by HPLC-MS/MS analysis; assay type: ADME, organism-based; settings: read-out: Ct
[8] = Kinetic solubility of compound at pH 7.4 incubated for 2 hrs by UV-HPLC analysis; assay type: physicochemical; settings: buffer, read-out: Kinetic_solubility
[9] = Ratio of drug concentration in brain to plasma in NMRI mouse plasma at 10 mg/kg, ip measured after 1 hr by HPLC-MS/MS analysis; assay type: ADME, organism-based
[10] = Drug concentration in NMRI mouse brain at 10 mg/kg, ip measured after 1 hr by HPLC-MS/MS analysis; assay type: ADME, organism-based; settings: read-out: Ct
[11] = Ratio of drug concentration in brain to plasma in NMRI mouse plasma at 3 mg/kg, ip measured after 1 hr by HPLC-MS/MS analysis; assay type: ADME, organism-based
[12] = Drug concentration in NMRI mouse brain at 1 mg/kg, ip measured after 1 hr by HPLC-MS/MS analysis; assay type: ADME, organism-based; settings: read-out: Ct
[13] = target: Neuronal acetylcholine receptor subunit alpha-7 (Homo sapiens, UniProt P36544); experiment: Positive allosteric modulator activity at human alpha7 nAChR expressed in Flp-In HEK293 cells assessed as increase in calcium influx incubated for 10 mins by fluorescence based analysis; assay type: cell-based
[14] = Drug concentration in NMRI mouse plasma at 3 mg/kg, ip measured after 1 hr by HPLC-MS/MS analysis; assay type: ADME, organism-based
[15] = Ratio of drug concentration in brain to plasma in NMRI mouse plasma at 1 mg/kg, ip measured after 1 hr by HPLC-MS/MS analysis; assay type: ADME, organism-based
[16] = target: Voltage-gated inwardly rectifying potassium channel KCNH2 (Homo sapiens, UniProt Q12809); experiment: Inhibition of hERG transfected in CHO cells at -80 mV holding potential by automated patch clamp assay; assay type: toxicity, cell-based
[17] = Efflux ratio of apparent permeability in human Caco-2 cells at 10 uM; assay type: ADME, cell-based
[18] = Apparent permeability in human Caco2 cells at 10 uM; assay type: ADME, cell-based; settings: Caco-2
[19] = test system: Mus musculus; experiment: Cognitive activity in scopolamine induced amnesia ip dosed NMRI mouse model assessed as minimum effective dose pretreated with compound for 30 mins followed by scopolamine induction; assay type: functional; settings: 0.5 h
[20] = Metabolic stability in human Hepatocyte assessed as intrinsic clearance measured per million cells incubated for 40 mins; assay type: ADME, cell-based; settings: hepatocytes, read-out: CLH
[21] = Toxicity in NMRI mouse assessed as effect on locomotor activity at 30 mg/kg, ip; assay type: organism-based; settings: in vivo

Chain of Neuronal acetylcholine receptor subunit alpha-7 (P36544 whole entry): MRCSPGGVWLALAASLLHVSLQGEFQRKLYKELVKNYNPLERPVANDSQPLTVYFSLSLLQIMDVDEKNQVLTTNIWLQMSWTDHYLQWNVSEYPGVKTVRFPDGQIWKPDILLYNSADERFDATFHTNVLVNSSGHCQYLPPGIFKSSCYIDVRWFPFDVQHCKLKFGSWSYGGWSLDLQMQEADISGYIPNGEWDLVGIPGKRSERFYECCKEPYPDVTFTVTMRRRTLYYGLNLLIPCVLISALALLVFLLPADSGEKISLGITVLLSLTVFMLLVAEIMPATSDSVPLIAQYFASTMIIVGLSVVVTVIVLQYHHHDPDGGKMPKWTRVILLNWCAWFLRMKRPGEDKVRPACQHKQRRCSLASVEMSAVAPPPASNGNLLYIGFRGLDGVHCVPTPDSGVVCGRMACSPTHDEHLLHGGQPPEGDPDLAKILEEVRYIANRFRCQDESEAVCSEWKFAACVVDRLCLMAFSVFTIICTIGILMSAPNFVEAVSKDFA
Chain of Voltage-gated inwardly rectifying potassium channel KCNH2 (Q12809 whole entry): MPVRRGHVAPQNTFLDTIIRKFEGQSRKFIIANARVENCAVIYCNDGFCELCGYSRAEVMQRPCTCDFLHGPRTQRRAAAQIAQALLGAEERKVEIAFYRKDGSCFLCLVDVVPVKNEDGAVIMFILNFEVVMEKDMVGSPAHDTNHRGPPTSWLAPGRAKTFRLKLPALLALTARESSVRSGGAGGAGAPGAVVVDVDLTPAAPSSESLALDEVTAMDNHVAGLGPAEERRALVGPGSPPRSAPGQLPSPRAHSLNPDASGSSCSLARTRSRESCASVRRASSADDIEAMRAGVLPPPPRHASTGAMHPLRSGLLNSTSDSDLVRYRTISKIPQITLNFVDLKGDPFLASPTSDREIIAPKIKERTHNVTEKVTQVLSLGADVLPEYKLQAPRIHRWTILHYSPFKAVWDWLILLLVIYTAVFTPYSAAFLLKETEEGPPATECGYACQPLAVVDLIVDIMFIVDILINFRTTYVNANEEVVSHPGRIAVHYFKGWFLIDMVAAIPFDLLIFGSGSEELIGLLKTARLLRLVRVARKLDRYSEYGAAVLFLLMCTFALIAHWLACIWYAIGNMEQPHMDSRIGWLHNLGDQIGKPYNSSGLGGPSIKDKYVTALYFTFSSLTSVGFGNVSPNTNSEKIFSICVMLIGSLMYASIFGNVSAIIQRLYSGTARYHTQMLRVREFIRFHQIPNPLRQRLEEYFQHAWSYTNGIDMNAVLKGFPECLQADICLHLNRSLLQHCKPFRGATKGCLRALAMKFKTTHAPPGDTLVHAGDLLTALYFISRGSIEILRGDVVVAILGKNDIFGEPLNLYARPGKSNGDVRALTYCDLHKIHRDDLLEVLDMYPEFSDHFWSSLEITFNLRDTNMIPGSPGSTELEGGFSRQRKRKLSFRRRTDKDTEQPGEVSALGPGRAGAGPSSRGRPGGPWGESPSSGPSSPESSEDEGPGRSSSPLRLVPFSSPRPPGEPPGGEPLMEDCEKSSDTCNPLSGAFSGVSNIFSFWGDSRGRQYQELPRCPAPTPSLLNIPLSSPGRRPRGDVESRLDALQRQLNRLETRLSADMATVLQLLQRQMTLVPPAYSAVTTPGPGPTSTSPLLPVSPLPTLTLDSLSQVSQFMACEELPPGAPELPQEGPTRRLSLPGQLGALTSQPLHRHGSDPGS

concentration at 1 h [2] [ng/mL] | microsomal CLint [3] [µL/min/mg] | microsomal CLint [4] [µL/min/mg] | microsomal CLint [5] [µL/min/mg] | concentration at 1 h [6] [ng/mL] | concentration at 1 h [7] [ng/g] | solubility kinetic at 2 h [8] [µM] | Kp at 1 h [9] | concentration at 1 h [10] [ng/g] | Kp at 1 h [11] | concentration at 1 h [12] [ng/g] | EC50 [13] [nM] | concentration at 1 h [14] [ng/mL] | Kp at 1 h [15] | SMILES | Activity [1] | MED [19] [mg/kg] | further results
179 | 123 | 17 | 77 | 2090 | 174 | 2.5 (≈ 1.05 µg/mL) | 0.22 | 438 | 0.25 | 46.8 | 200 | 689 | 0.26 | Cn1ccc2cc(CNC(=O)N3CC(COc4ccc(C(F)(F)F)cc4)C3)cnc21 | Active |  | 
167 | 36 | 39 | 44 | 4230 | 678 | 14.2 (≈ 5.98 µg/mL) | 0.66 | 2810 | 1.12 | 201 | 85 | 610 | 1.2 | O=C(NCc1ccc2[nH]ccc2c1)N1CC(COc2ccc(C(F)(F)F)c(F)c2)C1 | Active | 3 | IC50 [16]: 10 µM; efflux ratio at 10 µM [17]: 1.3; Papp at 10 µM [18]: 63 ×10⁻⁶ cm/s
107 | 49 | 13 | 30 | 2050 | 78.5 | 46 (≈ 18.1 µg/mL) | 0.31 | 248 | 0.3 | 29 |  | 262 | 0.27 | Cn1ccc2cc(CNC(=O)N3CC4(CC(=O)c5ccc(F)cc5O4)C3)ccc21 | Active | 10 | hepatocyte CLint [20]: 10.3 µL/min/1e6 cells; Activity [21]: Non-Toxic
